Data on seven compounds can be found in ChEMBL document CHEMBL1201862, “PubChem BioAssay data set” (2004).

Experiment [1] addresses Sphingosine 1-phosphate receptor 1 (Homo sapiens, UniProt P21453). The experiment is described as follows: Fluorescence-based counterscreen assay for S1P4 agonists: Cell-based dose response high throughput screening assay to identify agonists of the Sphingosine 1-Phosphate Receptor 1 (S1P1). [Related pubchem assays (depositor defined):AID1509, AID1523, AID1801, AID463107, AID463118, AID463119, AID463122, AID463123, AID463129, AID463225, AID504400, AID504460]. In kind it is functional. For orientation: Counterscreens check selectivity or assay interference.

The target in experiment [2] is Sphingosine 1-phosphate receptor 4 (Homo sapiens, UniProt O95977). Nature of the experiment: Fluorescence dose response cell-based high throughput screening assay for agonists of the Sphingosine 1-Phosphate Receptor 4 (S1P4). [Related pubchem assays: 1509 (Primary screen.), 1523 (Confirmation screen in triplicates.)]. In kind it is functional.
For experiment [3], the target named is Sphingosine 1-phosphate receptor 2 (Homo sapiens, UniProt O95136). Nature of the experiment: Dose Response Cell Based Assay for Agonists of the S1P2 Receptor. [Related pubchem assays: 729, 736, 843 ]. The experiment is classed as functional.
In the next experiment the target is T1, Aminopeptidase N (Plasmodium falciparum FcB1/Columbia, UniProt O96935).
T1 sequence (O96935 whole entry): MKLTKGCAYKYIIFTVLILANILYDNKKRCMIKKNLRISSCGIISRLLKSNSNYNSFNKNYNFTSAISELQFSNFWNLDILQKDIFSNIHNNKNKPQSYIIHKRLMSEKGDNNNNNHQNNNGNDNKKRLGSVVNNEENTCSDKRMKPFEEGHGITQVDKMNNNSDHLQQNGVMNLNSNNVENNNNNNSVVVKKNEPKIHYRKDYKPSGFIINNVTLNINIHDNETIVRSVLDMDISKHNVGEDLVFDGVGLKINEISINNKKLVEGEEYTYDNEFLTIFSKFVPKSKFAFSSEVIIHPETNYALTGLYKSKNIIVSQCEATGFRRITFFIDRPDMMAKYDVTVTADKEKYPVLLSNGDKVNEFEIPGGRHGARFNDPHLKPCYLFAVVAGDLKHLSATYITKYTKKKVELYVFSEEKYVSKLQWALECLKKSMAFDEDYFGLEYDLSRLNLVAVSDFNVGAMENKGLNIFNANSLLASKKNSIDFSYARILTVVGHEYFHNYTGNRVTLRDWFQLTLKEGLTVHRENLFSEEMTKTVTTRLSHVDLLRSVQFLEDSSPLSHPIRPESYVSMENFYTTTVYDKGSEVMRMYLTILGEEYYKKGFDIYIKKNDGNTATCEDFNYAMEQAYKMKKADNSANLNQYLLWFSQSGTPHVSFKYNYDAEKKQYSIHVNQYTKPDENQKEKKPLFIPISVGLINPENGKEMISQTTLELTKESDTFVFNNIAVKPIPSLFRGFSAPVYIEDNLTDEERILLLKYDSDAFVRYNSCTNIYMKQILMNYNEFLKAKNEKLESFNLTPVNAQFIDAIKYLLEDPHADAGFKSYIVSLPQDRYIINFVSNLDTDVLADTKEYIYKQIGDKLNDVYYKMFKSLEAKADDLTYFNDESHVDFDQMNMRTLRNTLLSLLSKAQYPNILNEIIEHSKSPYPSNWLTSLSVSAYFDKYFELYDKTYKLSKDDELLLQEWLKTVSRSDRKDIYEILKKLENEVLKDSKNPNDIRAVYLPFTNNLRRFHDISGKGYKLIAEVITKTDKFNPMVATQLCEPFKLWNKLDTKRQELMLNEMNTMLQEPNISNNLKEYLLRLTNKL
The experiment is described as follows: malaria alanyl aminopeptidase activity blockers – biochemical, fluorogenic H-Leu-NHMec substrate, 1536-well (AID 1445). On the set-up: species or system Plasmodium falciparum 3D7, 3D7.

The next experiment has as its target Exodeoxyribonuclease V (Escherichia coli (strain K12), UniProt P04993+P07648+P08394). The experiment is described as follows: RecBCD inhibition via phage-restricted bacterial growth – absorbance, V66 E. coli, mutant T4 phage, counter-screen for AddAB inhibitor project, dose response (AID 492957). In kind it is functional, cell-based, Escherichia coli str. K-12 substr. MG1655.

The nature of experiment [4]: Counterscreen for AddAB inhibitors: absorbance-based bacterial cell-based high throughput dose response assay for inhibitors of bacterial viability. [Related pubchem assays (depositor defined):AID435030, AID449728, AID449731, AID488942, AID488955, AID488956]. In kind it is functional.
The target in experiment [5] is T2, Peroxisome proliferator-activated receptor gamma (Homo sapiens, UniProt P37231).
T2 sequence (P37231 whole entry): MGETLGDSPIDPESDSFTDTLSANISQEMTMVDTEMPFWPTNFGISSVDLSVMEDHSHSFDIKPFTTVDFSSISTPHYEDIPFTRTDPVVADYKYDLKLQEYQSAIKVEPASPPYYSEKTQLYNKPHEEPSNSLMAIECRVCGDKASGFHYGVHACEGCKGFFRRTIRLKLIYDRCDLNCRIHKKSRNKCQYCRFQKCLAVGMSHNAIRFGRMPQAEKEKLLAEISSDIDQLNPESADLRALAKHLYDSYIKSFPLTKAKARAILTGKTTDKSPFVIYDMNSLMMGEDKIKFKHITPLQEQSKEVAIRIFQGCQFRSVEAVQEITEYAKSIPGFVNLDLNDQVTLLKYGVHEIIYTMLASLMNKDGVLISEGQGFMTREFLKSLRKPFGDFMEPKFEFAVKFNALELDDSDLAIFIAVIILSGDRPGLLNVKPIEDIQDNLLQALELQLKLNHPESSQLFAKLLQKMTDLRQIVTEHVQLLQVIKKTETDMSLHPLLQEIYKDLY
Nature of the experiment: competitive ligand displacement at PPARg – biochemical, fluorescence polarization, PolarScreen, PPARg partial agonist project, dose response (AID 504453).

In experiment [6] the target is T2, Peroxisome proliferator-activated receptor gamma. The experiment is described as follows: competitive ligand displacement at PPARg – biochemical, TR-FRET, LanthaScreen, PPARg partial agonist project, dose response (AID 504446). In general terms: Time-resolved FRET reads energy transfer from a long-lived donor to a nearby acceptor.
Experiment [7] shares this target. Nature of the experiment: PPARg transcriptional activation, reporter cells – cell-based, luminescence, assay provider, dose response (AID 504447). The experiment is classed as functional.
The target of experiment [8] is Signal transducer and activator of transcription 1-alpha/beta (Homo sapiens, UniProt P42224). Nature of the experiment: STAT3 blockade with qPCR and toxicity readouts – cell-based, STAT1 panel, cytotoxicity, late-stage follow-up, panel member STAT1 Inhibition (AID 2078). (Real-time PCR tracks product formation cycle by cycle.)
Experiment [9] deals with Signal transducer and activator of transcription 3 (Homo sapiens, UniProt P40763). Nature of the experiment: STAT3 blockade with qPCR and toxicity readouts – cell-based, STAT1 panel, cytotoxicity, late-stage follow-up, panel member STAT3 Inhibition (AID 2078).
The target of experiment [10] is Kappa-type opioid receptor (Homo sapiens, UniProt P41145). Nature of the experiment: SAR analysis of small molecule agonists of the kappa opioid receptor via a luminescent beta-arrestin assay - Set 3. [Related pubchem assays (depositor defined):AID1777, AID1785, AID1786, AID1966, AID2133, AID2136, AID2284, AID2500]. The experiment is classed as functional.
The target of experiment [11] is Voltage-dependent T-type calcium channel subunit alpha-1H (Homo sapiens, UniProt O95180). The experiment is described as follows: inhibition of CACNA1H calcium flux – cell-based, SynthLib3 library, HEK293 Cav3.2, fluorescence (AID 493041). The experiment is classed as functional.
For another experiment, the target named is T3, Protein RecA (Mycobacterium tuberculosis, UniProt P9WHJ3).
T3 sequence (P9WHJ3 whole entry): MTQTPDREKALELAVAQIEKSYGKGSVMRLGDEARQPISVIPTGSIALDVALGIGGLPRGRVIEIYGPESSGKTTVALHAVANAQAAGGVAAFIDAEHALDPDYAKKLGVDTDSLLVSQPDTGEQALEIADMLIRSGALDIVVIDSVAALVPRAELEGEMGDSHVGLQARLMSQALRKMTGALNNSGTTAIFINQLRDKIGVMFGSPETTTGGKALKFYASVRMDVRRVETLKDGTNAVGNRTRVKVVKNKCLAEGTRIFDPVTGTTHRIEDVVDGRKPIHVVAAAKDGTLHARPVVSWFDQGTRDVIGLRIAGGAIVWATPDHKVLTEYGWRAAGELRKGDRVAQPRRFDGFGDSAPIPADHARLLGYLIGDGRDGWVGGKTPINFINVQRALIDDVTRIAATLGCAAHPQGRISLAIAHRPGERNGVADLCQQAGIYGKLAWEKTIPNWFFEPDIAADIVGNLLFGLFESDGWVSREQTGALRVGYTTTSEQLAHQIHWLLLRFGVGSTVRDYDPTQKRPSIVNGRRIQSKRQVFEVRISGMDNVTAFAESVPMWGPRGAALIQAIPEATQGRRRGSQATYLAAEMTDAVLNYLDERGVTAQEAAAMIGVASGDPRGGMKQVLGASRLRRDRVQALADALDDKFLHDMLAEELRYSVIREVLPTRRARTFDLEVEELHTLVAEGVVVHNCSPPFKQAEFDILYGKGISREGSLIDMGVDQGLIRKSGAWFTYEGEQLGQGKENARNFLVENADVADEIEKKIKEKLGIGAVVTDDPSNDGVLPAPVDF
Nature of the experiment: Fluorescence Cell-Free Homogeneous Dose Retest to Identify Inhibitors of RecA-Intein Splicing Activity. [Related pubchem assays (depositor defined):AID2097, AID2223, AID489010, AID492950]. In kind it is functional.

Experiment [12] deals with T4, Replicative DNA helicase DnaB (Mycobacterium tuberculosis, UniProt P9WMR3).
T4 sequence (P9WMR3 whole entry): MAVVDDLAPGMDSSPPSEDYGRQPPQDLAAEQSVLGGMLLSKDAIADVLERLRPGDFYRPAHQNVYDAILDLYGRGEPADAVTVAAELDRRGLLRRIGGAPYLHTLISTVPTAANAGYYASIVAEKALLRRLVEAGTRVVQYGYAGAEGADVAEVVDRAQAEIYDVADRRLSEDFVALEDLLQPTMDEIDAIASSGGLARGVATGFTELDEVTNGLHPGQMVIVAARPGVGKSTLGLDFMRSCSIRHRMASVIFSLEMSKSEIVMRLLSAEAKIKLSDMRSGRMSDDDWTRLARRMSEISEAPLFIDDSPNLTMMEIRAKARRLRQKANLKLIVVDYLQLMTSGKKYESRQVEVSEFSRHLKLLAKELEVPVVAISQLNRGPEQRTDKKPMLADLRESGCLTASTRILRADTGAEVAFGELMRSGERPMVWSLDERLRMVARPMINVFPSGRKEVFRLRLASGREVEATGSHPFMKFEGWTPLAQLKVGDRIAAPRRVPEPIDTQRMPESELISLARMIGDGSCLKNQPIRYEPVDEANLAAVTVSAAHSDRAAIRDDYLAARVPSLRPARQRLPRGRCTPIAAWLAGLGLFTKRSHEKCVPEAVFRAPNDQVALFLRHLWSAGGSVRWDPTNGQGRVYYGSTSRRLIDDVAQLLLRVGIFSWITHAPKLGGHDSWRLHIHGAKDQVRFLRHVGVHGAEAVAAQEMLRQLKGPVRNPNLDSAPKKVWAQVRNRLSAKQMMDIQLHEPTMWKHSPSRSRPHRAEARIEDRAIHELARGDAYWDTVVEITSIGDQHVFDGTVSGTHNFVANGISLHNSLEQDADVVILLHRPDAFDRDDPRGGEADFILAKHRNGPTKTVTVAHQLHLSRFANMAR
Nature of the experiment: DnaB intein splicing inhibitors, dose response, biochemical, cell-free fluorescence (AID 449749). In kind it is functional.

Experiment [13] can be described thus: MIN6 cell viability loss – mouse insulinoma, cytotoxicity control, dose response (AID 2122).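 Note: confirmatory high-throughput counterscreen run to flag cytotoxic compounds.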 The experiment is classed as functional.
Experiment [14] can be described thus: decrease of insulin promoter-GFP reporter – imaging, high-content screening, mouse beta cells (AID 1628). To be noted: MIN6. In kind it is functional.
Experiment [15] has as its target T5, Ubiquitin-conjugating enzyme E2 N (Homo sapiens, UniProt P61088).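 Note: Dose-response confirmation in a TR-FRET assay detecting UBC13-driven polyubiquitin chain formation, inhibition measured.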
T5 sequence (P61088 whole entry): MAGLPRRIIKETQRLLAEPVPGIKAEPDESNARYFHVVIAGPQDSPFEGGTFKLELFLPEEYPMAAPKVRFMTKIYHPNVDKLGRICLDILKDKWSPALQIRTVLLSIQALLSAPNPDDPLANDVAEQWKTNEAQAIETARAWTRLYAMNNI
In kind it is functional.

The source made the active and inactive calls.

Chain of Signal transducer and activator of transcription 1-alpha/beta (P42224 whole entry): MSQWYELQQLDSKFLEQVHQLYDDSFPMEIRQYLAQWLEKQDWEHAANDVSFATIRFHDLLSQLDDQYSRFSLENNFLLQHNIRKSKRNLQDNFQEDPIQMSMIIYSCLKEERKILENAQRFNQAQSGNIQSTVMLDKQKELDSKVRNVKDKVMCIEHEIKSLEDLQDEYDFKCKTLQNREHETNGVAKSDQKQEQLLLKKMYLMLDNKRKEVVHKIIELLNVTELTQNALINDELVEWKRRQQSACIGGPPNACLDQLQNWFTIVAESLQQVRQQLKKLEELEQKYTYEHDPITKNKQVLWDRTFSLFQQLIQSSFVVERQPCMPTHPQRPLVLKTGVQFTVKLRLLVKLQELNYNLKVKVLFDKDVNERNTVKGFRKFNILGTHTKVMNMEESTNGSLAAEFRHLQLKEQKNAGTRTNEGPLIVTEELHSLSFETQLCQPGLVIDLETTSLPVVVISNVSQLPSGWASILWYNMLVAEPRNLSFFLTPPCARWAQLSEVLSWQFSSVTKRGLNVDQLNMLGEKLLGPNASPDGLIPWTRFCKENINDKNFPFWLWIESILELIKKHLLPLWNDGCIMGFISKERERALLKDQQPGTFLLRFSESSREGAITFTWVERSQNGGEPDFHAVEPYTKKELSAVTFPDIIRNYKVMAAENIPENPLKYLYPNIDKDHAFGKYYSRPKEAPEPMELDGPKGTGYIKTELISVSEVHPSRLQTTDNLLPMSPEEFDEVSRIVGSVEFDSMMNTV
Chain of Exodeoxyribonuclease V (P04993 whole entry): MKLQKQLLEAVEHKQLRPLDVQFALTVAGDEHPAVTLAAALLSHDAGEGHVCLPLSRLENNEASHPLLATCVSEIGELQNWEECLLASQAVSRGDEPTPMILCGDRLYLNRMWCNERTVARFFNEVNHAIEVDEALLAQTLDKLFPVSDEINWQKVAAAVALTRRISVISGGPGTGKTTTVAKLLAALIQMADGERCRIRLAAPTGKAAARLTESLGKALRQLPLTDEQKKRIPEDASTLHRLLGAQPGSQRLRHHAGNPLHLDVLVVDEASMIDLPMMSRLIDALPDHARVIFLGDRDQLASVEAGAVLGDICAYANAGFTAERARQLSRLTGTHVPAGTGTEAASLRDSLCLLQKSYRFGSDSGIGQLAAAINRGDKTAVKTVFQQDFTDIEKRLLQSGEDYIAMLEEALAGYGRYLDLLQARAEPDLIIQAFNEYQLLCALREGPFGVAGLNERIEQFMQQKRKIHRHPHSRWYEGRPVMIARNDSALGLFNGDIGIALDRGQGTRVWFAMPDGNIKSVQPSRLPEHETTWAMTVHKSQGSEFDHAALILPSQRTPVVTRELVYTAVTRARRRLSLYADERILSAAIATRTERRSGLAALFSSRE
Chain of Exodeoxyribonuclease V (P07648 whole entry): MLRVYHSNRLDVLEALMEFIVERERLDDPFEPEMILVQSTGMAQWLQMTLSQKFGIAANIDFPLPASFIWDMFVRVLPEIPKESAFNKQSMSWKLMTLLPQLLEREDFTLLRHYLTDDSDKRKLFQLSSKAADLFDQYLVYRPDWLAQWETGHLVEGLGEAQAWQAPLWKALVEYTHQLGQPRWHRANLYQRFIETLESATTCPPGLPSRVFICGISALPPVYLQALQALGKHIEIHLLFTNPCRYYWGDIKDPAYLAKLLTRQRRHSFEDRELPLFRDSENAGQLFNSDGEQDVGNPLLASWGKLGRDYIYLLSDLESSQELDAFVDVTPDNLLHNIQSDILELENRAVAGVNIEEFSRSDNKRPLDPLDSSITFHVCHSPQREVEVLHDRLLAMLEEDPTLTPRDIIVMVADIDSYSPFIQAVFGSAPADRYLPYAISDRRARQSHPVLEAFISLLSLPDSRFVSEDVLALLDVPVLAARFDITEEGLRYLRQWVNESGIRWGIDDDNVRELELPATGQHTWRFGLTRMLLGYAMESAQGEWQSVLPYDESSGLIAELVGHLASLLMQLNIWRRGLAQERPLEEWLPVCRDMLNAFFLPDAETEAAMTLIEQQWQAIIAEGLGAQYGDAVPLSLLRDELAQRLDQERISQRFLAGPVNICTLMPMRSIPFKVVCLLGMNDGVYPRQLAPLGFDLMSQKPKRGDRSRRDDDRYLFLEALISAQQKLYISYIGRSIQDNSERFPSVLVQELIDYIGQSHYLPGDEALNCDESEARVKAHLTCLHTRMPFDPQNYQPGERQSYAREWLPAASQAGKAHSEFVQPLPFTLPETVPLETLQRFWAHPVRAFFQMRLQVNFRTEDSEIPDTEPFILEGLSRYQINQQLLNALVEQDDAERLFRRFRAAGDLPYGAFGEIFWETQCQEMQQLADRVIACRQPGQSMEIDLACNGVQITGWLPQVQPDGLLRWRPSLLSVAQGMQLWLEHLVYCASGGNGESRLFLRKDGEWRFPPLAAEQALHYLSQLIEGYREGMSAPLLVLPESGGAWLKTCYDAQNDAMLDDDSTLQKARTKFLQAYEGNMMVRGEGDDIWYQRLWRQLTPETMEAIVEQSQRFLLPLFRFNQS
Chain of Exodeoxyribonuclease V (P08394 whole entry): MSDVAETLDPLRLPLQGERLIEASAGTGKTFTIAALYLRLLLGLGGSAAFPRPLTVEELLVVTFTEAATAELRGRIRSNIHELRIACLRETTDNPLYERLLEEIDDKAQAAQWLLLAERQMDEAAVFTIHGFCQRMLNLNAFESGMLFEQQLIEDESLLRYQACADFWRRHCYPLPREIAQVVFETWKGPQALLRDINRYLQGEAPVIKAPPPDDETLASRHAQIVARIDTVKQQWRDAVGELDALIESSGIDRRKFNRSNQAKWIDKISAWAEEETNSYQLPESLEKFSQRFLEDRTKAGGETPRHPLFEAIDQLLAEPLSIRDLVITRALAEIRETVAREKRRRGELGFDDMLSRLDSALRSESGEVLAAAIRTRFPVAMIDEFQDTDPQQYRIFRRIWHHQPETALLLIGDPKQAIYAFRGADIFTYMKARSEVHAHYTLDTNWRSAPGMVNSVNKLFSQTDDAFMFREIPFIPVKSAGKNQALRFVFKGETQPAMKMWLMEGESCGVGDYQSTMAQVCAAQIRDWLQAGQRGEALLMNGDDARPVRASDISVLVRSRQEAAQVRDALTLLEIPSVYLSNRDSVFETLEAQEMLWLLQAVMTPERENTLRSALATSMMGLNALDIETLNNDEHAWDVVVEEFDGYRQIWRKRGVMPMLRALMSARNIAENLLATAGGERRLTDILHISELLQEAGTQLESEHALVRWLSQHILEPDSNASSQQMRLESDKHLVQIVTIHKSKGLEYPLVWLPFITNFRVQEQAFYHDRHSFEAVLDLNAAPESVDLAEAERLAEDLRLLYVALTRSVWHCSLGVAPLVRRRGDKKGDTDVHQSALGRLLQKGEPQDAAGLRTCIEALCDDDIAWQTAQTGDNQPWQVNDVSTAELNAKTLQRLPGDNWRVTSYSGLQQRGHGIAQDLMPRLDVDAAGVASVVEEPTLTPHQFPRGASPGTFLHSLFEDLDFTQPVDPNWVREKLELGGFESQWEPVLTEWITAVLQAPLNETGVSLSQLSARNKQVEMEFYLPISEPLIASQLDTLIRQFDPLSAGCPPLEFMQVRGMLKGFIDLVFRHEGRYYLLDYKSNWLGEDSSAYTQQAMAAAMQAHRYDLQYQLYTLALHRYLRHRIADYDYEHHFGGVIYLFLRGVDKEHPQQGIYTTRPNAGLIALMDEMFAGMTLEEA
Chain of Kappa-type opioid receptor (P41145 whole entry): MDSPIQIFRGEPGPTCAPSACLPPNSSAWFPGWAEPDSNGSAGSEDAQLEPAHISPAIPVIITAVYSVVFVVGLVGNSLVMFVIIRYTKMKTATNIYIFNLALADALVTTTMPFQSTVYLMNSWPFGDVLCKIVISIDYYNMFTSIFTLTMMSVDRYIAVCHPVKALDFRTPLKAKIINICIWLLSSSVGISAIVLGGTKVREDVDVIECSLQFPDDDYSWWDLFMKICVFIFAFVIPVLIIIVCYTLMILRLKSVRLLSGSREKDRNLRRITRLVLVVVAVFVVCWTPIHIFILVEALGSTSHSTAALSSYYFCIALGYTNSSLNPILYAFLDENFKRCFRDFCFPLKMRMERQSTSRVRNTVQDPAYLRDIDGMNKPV
Chain of Signal transducer and activator of transcription 3 (P40763 whole entry): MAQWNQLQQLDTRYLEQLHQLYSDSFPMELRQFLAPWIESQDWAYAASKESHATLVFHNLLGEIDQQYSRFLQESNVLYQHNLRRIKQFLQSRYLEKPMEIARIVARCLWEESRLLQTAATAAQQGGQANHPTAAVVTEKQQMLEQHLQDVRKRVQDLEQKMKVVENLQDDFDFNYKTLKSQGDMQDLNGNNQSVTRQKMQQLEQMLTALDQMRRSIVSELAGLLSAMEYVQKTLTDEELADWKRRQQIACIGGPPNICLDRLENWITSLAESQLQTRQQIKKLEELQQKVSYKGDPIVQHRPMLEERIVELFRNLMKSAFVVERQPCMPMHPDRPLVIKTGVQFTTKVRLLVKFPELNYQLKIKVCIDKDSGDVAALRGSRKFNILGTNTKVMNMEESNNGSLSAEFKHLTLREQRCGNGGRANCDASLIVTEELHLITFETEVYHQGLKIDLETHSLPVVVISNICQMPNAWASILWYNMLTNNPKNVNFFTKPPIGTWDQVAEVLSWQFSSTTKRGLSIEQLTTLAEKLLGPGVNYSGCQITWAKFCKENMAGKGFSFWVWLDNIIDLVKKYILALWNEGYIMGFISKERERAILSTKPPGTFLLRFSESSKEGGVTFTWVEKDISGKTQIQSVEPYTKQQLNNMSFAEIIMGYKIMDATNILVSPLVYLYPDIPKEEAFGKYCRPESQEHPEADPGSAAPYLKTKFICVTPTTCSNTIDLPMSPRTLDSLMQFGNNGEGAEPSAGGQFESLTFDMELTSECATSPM

As usually defined, the EC50 is the concentration needed to bring the measured effect to its halfway point. A word on the IC50: it is the concentration at which inhibition is half-maximal. In the case of `CC(C)n1c(=N)c(C(=O)NCCc2ccccc2)cc2c(=O)n3ccccc3nc21`, the results for the EC50 in [1], in [2] and in [3] were 15.9 µM (inactive), 5.78 µM (active) and 4.8 µM (active), respectively. Further, on Aminopeptidase N, the IC50 is 58.6 µM (active).
`CCOc1ccc2oc(C(=O)NNC(=O)c3ccccc3O)c(C)c2c1`: the IC50 (at Exodeoxyribonuclease V; in [4]) was > 119 µM (inactive) in each case.
With `Cc1ccc2nc(N3C(=O)C(O)=C(C(=O)c4ccc(C)o4)C3c3ccco3)sc2c1` (stereo not drawn), the 50% inhibitory concentration (IC50) in [5] was 22 µM (active); in experiment [6], 2.6 µM (active). Besides, the EC50 in experiment [7] was 18 µM (active).
As for `Fc1ccc(CC2CCN(c3ncnc4sccc34)CC2)cc1`, the IC50 in [8] is > 55.7 µM (inactive); in experiment [9], 2.54 µM (active).
In the case of `CCCCN(Cc1cc2cc(Cl)ccc2[nH]c1=O)C(=O)c1ccccc1`, the EC50 in [10] was > 20 µM (inactive).
`CCC(CC)CN1C[C@@H]2C(CNC(=O)c3cc(Cl)cc(Cl)c3)[C@@H]2C1` (stereo partly drawn): the concentration for a half-maximal effect (EC50) in experiment [11] was 1.2 µM (active).
In general, AC50 refers to the concentration at which the activity in the assay is half-maximal. Turning to `Fc1ccc(Nc2nc(NCc3ccco3)c3ccccc3n2)cc1`, the EC50 at Protein RecA was 8.32 µM (active). In experiment [12], the AC50 is 1.93 µM (active). Also, the half-inhibitory concentration (IC50) in experiment [13] is 1.93 µM (active); in [14] it was 1.7 µM (active); in experiment [15] it was > 20 µM (inactive).
